Measurements: US20100190184A1, “SCREENING METHOD UTILIZING NOVEL SUBSTRATE C-RET FOR GAMMA-SECRETASE” (Eisai R & D Management Co., Ltd., priority 2007, published 2010)

Biological target: T1, γ-secretase (cleavage of rat c-Ret with HA tag in HEK293 cells) (Homo sapiens, UniProt P49768)
T1 construct: endogenous in cells; host or cells: 293/EBNA-1 cell strain (HEK293), transiently transfected with rat c-Ret-HA only
Assay: Analysis of c-Ret processing in c-Ret-transfected 293/EBNA-1 cell strain (Western blotting with anti-HA antibody)
Format: cell-based
Set-up: dose or concentration left out as unconfirmed
Settings: Compound E added to culture broth, one day; 293/EBNA-1 (HEK293) cells transfected with rat c-Ret-HA; versus untreated sample
Experimental: Whether or not c-Ret is a substrate for γ-secretase was evaluated using HEK293 cells expressing a gene encoding c-Ret with an HA tag added to its C-terminus, in the presence of a γ-secretase inhibitor. As the γ-secretase inhibitor, (2S)-2-{[(3,5-difluorophenyl)acetyl]amino}-N-[(3S)-1-methyl-2-oxo-5-phenyl-2,3-dihydro-1H-1,4-benzodiazepin-3-yl]propanamide (hereinafter, sometimes referred to as “Compound E”) (Alexis Biochemicals) was used. 293/EBNA-1 cell strain (Invitrogen) was cultured in 6-well dishes containing 10% FBS (Hyclone)/DMEM (Invitrogen) under 5% CO2 at 37° C., followed by transfection thereinto of the gene encoding rat c-Ret with an HA tag added to its C-terminus using Lipofectamine 2000 (Invitrogen). After one day culture under the same conditions, 50 mM Compound E (Alexis Biochemicals) was added to the culture broth. Cells were cultured for another day under the same conditions. Then, the transfected HEK293 cells were collected with PBS (Sigma) and sonicated with a sonicator (Taitec VP-5S) to disrupt cells. Then, the quantity of protein was determined with Protein Assay Kit (BioRad). Samples (2 μg each) were taken from proteins obtained from Compound E-added cells and Compound E-not added cells, respectively, and subjected to SDS-PAGE, followed by Western blotting with an anti-HA antibody (Roche) (final concentration: 0.2 μg/ml). […]

C[C@H](NC(=O)Cc1cc(F)cc(F)c1)C(=O)N[C@H]1N=C(c2ccccc2)c2ccccc2N(C)C1=O [Compound E, (2S)-2-{[(3,5-difluorophenyl)acetyl]amino}-N-[(3S)-1-methyl-2-oxo-5-phenyl-2,3-dihydro-1H-1,4-benzodiazepin-3-yl]propanamide]
effect on cleavage of c-Ret by γ-secretase (c-Ret C terminal fragment band, Western blot): a band around 50 kDa (CTF) was accumulated specifically as a c-Ret undegraded product
